Broadly, the inhibition is the change of the read-out against control, counted positive when it falls. As a reminder, the melting point is the temperature, or range, at which the solid turns liquid. One may read the IC50 as the concentration that inhibits the measured activity by half. For orientation: GI50 means the concentration that inhibits growth by half. A lower GI50 goes with more potent growth inhibition.

The structures appear in SMILES notation. Where two headings read alike, the source gives them in different places. Bounds are passed on as bounds.

The values below come from patent US9737504B2, “Dihydroorotic and acid dehydrogenase inhibitor” (NAI INC., priority 2012, dated 2017).

The target in data set [1] is T1, human DHOD (Homo sapiens, UniProt Q02127). Description: Measurement of DHOD inhibitory activity (DCIP reduction, end point assay). Format: biochemical. The following applies: read-out: DHOD inhibition rate (%) 100 nM; 100 nM compound.
In data set [2] the target is T1, human DHOD. Description: Measurement of DHOD inhibitory activity (DCIP reduction, end point assay). It is filed as biochemical. The following applies: for inhibition at 0.2 µM: read-out: DHOD inhibition rate (%) 200 nM, 200 nM compound; for IC50: read-out: IC50 (nM) human DHOD (HsDHOD). Here is the method:
The compounds of the present invention were used and measured for their DHOD inhibitory activity at concentrations of 200 nM and 1000 nM.
Reduction of DCIP was measured at 600 nm over 20 minutes.

The next data set has as its system OVCAR-8. The experiment in a line: JFCR39 cancer cell growth inhibition test, OVCAR-8. The following applies: Homo sapiens; OVCAR-8, Ov (Ovarian). It is filed as cell-based.
The subject of the next data set is KM-12. The experiment in a line: JFCR39 cancer cell growth inhibition test, KM-12. It is filed as cell-based. The following applies: Homo sapiens, KM12; KM-12, Co (Colon).
The test system of data set [3] is DLD-1 cells (human colorectal cancer cells). Description: Inhibitory effect on DLD-1 cells, control vs hypoxic and subnutritional conditions. Format: cell-based. The following applies: for IC50: Homo sapiens. On the procedure:
(§1) For these reasons, cells of colorectal and pancreatic cancers, each being regarded as intractable, were used to test the inhibitory effect of compounds under hypoxic and subnutritional conditions. Moreover, the same test was also performed on normal skin cells.
The cells used were two types of cancer cells, i.e., DLD-1 cells (human colorectal cancer cells) and Panc-1 cells (human pancreatic cells), as well as HDF cells (human dermal fibroblast cells). Culture conditions were set as follows: 21% oxygen with glucose and […] (10% FBS) for the control group, and 1% oxygen without glucose and […] (10% FBS) for the hypoxic and subnutritional group. The results obtained are shown in Tables 3, 4 and 5, as well as FIGS. 1, 2 and 3.

For data set [4], the system named is HDF cells (human dermal fibroblast cells). The experiment in a line: Inhibitory effect on HDF cells, control vs hypoxic and subnutritional conditions. It is filed as cell-based. The following applies: for Selectivity = 21% glc(+)gln(+) IC50/1% glc(−)gln(−) IC50: HDF; for IC50: Homo sapiens, HDF normal skin cells. Here is the method:
as §1
The cells used were two types of cancer cells, i.e., DLD-1 cells (human colorectal cancer cells) and Panc-1 cells (human pancreatic cells), as well as HDF cells (human dermal fibroblast cells).

The next data set relates to bovine complex II-III. The experiment in a line: Inhibition of bovine complex II-III. It is filed as biochemical.
In a further data set the test system is L0X-IMVI. Description: JFCR39 cancer cell growth inhibition test, L0X-IMVI. It is filed as cell-based. The following applies: Homo sapiens, Me (Melanoma).
The test system of a further data set is MKN74. Description: JFCR39 cancer cell growth inhibition test, MKN74. It is filed as cell-based. The following applies: Homo sapiens, MKN-74; MKN74, St (Stomac).
Another data set relates to MKN28. The experiment in a line: JFCR39 cancer cell growth inhibition test, MKN28. Format: cell-based. The following applies: Homo sapiens, MKN-28; MKN28, St (Stomac).
The next data set has as its system HCC2998. The experiment in a line: JFCR39 cancer cell growth inhibition test, HCC2998. Format: cell-based. The following applies: Homo sapiens, HCC 2998; HCC2998, Co (Colon).
Data set [5] relates to human MX-1 breast, LX-1 lung, BL/STX-1 stomach and CX-1 colon carcinomas. The following applies: nude mice, 20 to 40 mg/kg/day; MX-1, LX-1, BL/STX-1, CX-1; cited from earlier work.
In another data set the test system is UMP levels. The following applies: after treatment with 25 μM NSC368390; cited from earlier work.
A further data set concerns DLD-2 colon cancer. The following applies: in vivo; cited from earlier work.
The mark [6] stands for this setting: read-out: IC50 DLD-1 [μM] 1% O2 glc(−)gln(−), DLD-1, 1% O2 glc(−)gln(−), 24 hours.
Where [7] appears, read: read-out: IC50 DLD-1 [μM] 1% O2 glc(−)gln(−), DLD-1, 1% O2 glc(−)gln(−), 48 hours.
Setting [8] is: read-out: IC50 [μM] 1% O2 glc(−)gln(−), 1% O2 glc(−)gln(−).

T1 sequence (Q02127 whole entry): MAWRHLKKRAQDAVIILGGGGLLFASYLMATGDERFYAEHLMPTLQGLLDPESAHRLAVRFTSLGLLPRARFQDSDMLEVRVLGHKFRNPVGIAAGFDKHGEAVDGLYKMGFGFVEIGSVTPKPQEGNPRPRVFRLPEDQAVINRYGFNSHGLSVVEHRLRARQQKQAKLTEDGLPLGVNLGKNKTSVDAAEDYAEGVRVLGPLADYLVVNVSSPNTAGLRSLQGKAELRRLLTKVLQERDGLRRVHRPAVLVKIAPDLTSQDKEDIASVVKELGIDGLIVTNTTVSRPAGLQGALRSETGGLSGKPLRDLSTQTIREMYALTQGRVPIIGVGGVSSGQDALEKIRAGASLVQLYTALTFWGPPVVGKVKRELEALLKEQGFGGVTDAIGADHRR

In turn, `C/C(C=O)=C\CC/C(C)=C/Cc1c(O)c(Cl)c(C)c(C=O)c1O` [274-9, 3-Chloro-5-[(2E,6E)-3,7-dimethyl-8-oxo-2,6-octadienyl]-4,6-dihydroxy-2-methylbenzaldehyde] came in with a melting point of 111.2 to 111.4 °C. Further, the inhibition at 0.1 µM on human DHOD [1] came out at 98%. Also, at human DHOD [2], the inhibition at 0.2 µM stood at 90% and the IC50 was found to be 31 ± 3 nM.

`COC(=O)/C(C)=C/CC/C(C)=C/Cc1c(O)c(Cl)c(C)c(C=O)c1O` [275-10-COOMe, Methyl (2E,6E)-8-(3-chloro-5-formyl-2,6-dihydroxy-4-methyl)phenyl-2,6-dimethyl-2,6-octa dienoate]: on human DHOD [1], the inhibition at 0.1 µM was determined as 100%. In addition, the GI50 with OVCAR-8 was determined as 4.4 µM; with KM-12, 6.4 µM. Moreover, the inhibition at 0.2 µM at human DHOD [2] came to 100%. Also, the IC50 on human DHOD [2] was 4.2 nM; in data set [3] (setting [6]), 1.7 µM; in data set [3] (setting [7]), 0.64 µM; in the data set with bovine complex II-III, 1.9 µM. For the same molecule, the “Selectivity = 21% glc(+)gln(+) IC50/1% glc(−)gln(−) IC50” value is greater than 59 in [3] (DLD-1, 24 hours); greater than 156 in data set [3] (DLD-1, 48 hours); greater than 32 in [4].

Regarding `CC(=O)/C(C)=C/CC/C(C)=C/Cc1c(O)c(Cl)c(C)c(C=O)c1O` [276-9], the melting point lay within 119 to 120 °C. In addition, at human DHOD [1], the inhibition at 0.1 µM worked out at 96%. Also, on human DHOD [2], the inhibition at 0.2 µM was 87% and the IC50 amounted to 24 ± 3 nM.

For `C/C(=C\Cc1c(O)c(Cl)c(C)c(C=O)c1O)CC/C=C(\C)C(C)O` (stereo not drawn) [277-9-OH, 3-Chloro-4,6-dihydroxy-2-methyl-5-(2E,6E)-(8-hydroxy-3,7-dimethyl-2,6-nonadienyl)benzaldehyde], at human DHOD [1], the inhibition at 0.1 µM turned out to be 107%. On human DHOD [2], the inhibition at 0.2 µM was found to be 75% and the IC50 was determined as 64 nM. In the data set on KM-12, this molecule came in with a GI50 of 32 µM.

With `CC(=O)OC(C)/C(C)=C/CC/C(C)=C/Cc1c(O)c(Cl)c(C)c(C=O)c1O` (stereo not drawn) [277-11-OAc, (3E,7E)-9-(3-Chloro-5-formyl-2,6-dihydroxy-4-methyl)phenyl-3,7-dimethyl-3,7-nonadien-2-yl acetate], the GI50 with L0X-IMVI was 1.5 µM; with KM-12, 5.7 µM. Moreover, the inhibition at 0.1 µM on human DHOD [1] was 103%. In addition, the inhibition at 0.2 µM at human DHOD [2] was 97%. The IC50 at human DHOD [2] was found to be 6.5 nM; in data set [3] (setting [6]), 1.9 µM; in data set [3] (setting [7]), 0.92 µM; in data set [4] (setting [8]), 4 µM; in the data set on bovine complex II-III, 4.5 µM. For the same molecule, the “Selectivity = 21% glc(+)gln(+) IC50/1% glc(−)gln(−) IC50” value is greater than 53 in [3] (DLD-1, 24 hours); greater than 109 in data set [3] (DLD-1, 48 hours); greater than 25 in data set [4].

Consider `CC(C)=CCC/C(C)=C/CC/C(C)=C/Cc1c(O)c(Cl)c(C)c(C=O)c1O` [280-12, (E,E)-3-Chloro-4,6-dihydroxy-5-(3,7,11-trimethyl-2,6,10-dodecatienyl)-2-methylbenzaldehyde], for which the inhibition at 0.1 µM at human DHOD [1] turned out to be 94%. Besides, at human DHOD [2], the inhibition at 0.2 µM came out at 104%. For the same molecule, the IC50 was determined as 6 nM on human DHOD [2]; 0.069 µM in data set [3] (setting [6]); 0.025 µM in data set [3] (setting [7]); 76 µM in data set [3] (DLD-1, 21% O2 glc(+)gln(+), 24 hours, read-out: IC50 DLD-1 [μM] 21% O2 glc(+)gln(+)); 37 µM in [3] (DLD-1, 21% O2 glc(+)gln(+), 48 hours, read-out: IC50 DLD-1 [μM] 21% O2 glc(+)gln(+)); 0.17 µM in data set [4] (setting [8]). Further, the IC50 in [4] (21% O2 glc(+)gln(+), read-out: IC50 [μM] 21% O2 glc(+)gln(+)) came to 60 µM; in the data set with bovine complex II-III, 0.26 µM. Further, the GI50 in the data set with KM-12 is 2 µM; with MKN74 it was 1.3 µM. For the same molecule, the “Selectivity = 21% glc(+)gln(+) IC50/1% glc(−)gln(−) IC50” value in data set [3] (DLD-1, 24 hours) was 1100; in data set [3] (DLD-1, 48 hours), 1480; in data set [4], 353.

As for `C/C(=C\Cc1c(O)c(Cl)c(C)c(C=O)c1O)CC/C=C(\C)CCC1OC1(C)C` (stereo not drawn) [281-12, 3-Chloro-5-(2E,6E)-3,7-dimethyl-9-(3,3-dimethyloxiran-2-yl)-2,6-nonadienyl-4,6-dihydroxy-2-methylbenzaldehyde], the melting point lay in the range of 36 to 37 °C. Moreover, at human DHOD [1], the inhibition at 0.1 µM amounted to 100%. On human DHOD [2], the inhibition at 0.2 µM was 79% and the IC50 turned out to be 50 ± 5 nM.

`C/C(=C\COC(=O)C(C)C)CC/C(C)=C/Cc1c(O)c(Cl)c(C)c(C=O)c1O` [287-12-OCOiPr, (2E,6E)-8-(3-Chloro-5-formyl-2,6-dihydroxy-4-methylphenyl)-3,6-dimethyl-2,6-octa dienyl isobutylate] returned a melting point of 62 to 63 °C. Also, at human DHOD [1], the inhibition at 0.1 µM stood at 109%. Moreover, halving of growth in the data set on OVCAR-8 (GI50) required 9.1 µM. Moreover, on human DHOD [2], the inhibition at 0.2 µM was 101% and the IC50 came to 21.5 nM. The molecule also yielded a GI50 with KM-12 of 10 µM. Further, in the data set on MKN28, growth was halved (GI50) at 10 µM. The molecule also yielded a GI50 with HCC2998 of 15 µM. The molecule further yielded a GI50 with MKN74 of 14 µM.

For `Cc1c(-c2ccc(-c3ccccc3F)cc2)nc2ccc(F)cc2c1C(=O)[O-].[Na+]` [NSC368390, 6-Fluoro-2-(2′-fluoro-1,1′-biphenyl-4-yl)-3-methyl-4-quinolinecarboxylic Acid Sodium Salt], the “inhibition of the growth of human carcinomas” value in [5] is reported as no less than 90%. Besides, in the data set with UMP levels, the “reduction of UMP levels” value is reported as 50%. The “growth inhibition of DLD-2 colon cancer” value in the data set with DLD-2 colon cancer is on record as 98%.
